Data set [1] can be described thus: In vitro metabolic stability in CES1−/− mouse plasma. The settings on record: C57BL/6, mouse. Type of data set: in vitro ADME.
A short description of data set [2]: In vitro metabolic stability in CES1−/− mouse liver homogenate. Type of data set: in vitro ADME. Particulars: C57BL/6, mouse.
A short description of data set [3]: In vitro metabolic stability in CES1−/− mouse brain homogenate. Particulars: for remaining at 1 h, 10 μM: C57BL/6, mouse; for Stability in mouse (% remaining at 1 h) Brain: 10 μM, 37 °C, mean ± std error, n = 3. It counts as in vitro ADME.
The nature of data set [4]: Time-dependent oral PK in CES1−/− mice. It counts as in vivo, mouse. Particulars: PO 10 mg/kg DPTIP equivalent.
Another data set is described as follows: Single time-point. Type of data set: in vivo, mouse. The settings on record: CES1−/− mice, PO 10 mg/kg DPTIP equivalent, 2 h post dose.
The format of data set [5] is in vivo, mouse. The settings on record: high resolution mass spectrometry, after oral dosing.
The target in the next data set is T1, nSMase2 (Mus musculus, UniProt Q9JJY3).
T1 sequence (Q9JJY3 1-655): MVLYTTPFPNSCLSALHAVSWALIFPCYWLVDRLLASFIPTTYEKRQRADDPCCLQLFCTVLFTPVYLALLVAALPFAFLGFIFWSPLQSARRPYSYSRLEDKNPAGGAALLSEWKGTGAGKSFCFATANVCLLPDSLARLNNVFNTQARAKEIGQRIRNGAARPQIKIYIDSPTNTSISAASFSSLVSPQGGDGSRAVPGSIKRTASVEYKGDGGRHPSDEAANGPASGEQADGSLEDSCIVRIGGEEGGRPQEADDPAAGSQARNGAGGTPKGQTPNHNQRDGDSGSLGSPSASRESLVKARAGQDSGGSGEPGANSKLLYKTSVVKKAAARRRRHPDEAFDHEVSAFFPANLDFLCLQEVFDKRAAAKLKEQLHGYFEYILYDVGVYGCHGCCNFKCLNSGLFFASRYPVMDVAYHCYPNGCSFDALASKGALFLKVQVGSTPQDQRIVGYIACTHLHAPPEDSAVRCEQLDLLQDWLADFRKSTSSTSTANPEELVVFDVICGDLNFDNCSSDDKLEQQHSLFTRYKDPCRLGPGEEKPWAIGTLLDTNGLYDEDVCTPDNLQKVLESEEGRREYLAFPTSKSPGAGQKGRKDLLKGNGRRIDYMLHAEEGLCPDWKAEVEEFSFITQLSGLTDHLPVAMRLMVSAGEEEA
The experiment in a line: nSMase2 activity in striata of IL-1β-injected mice. It counts as in vivo. The settings on record: PO 3 and 10 mg/kg DPTIP equivalent, dose dependent, 4 h post IL-1β.

For data set [6] the following is noted: rats, dose dependent; cited from earlier work.

Some results are limits rather than exact numbers.

Turning to `COc1cc(-c2nc(-c3ccccc3)c(-c3cccs3)[nH]2)cc(OC)c1OC(=O)N1CCC(N2CCCCC2)CC1` [Compound P1, 2,6-Dimethoxy-4-(4-phenyl-5-(thiophen-2-yl)-1H-imidazol-2-yl)phenyl [1,4’-bipiperidine]-1’-carboxylate], the amount remaining at 1 h, 10 μM in data set [1] (plasma) is greater than 75%; in data set [2] (tissue homogenate), greater than 75%; in data set [3] (brain homogenate), no less than 50%. Also, the “AUC0-t of intact prodrug in brain” value in data set [4] amounted to 494.6 pmol·h/g.
On to `CCCCCC(=O)Oc1c(OC)cc(-c2nc(-c3ccccc3)c(-c3cccs3)[nH]2)cc1OC` [Compound P2, 2,6-Dimethoxy-4-(4-phenyl-5-(thiophen-2-yl)-1H-imidazol-2-yl)phenyl hexanoate], for which the share remaining at 1 h, 10 μM is less than 30% in data set [1] (CES1−/− mouse plasma), less than 25% in data set [2] (CES1−/− mouse liver homogenate) and no less than 50% in data set [3] (CES1−/− mouse brain homogenate).
For the compound `COc1cc(-c2nc(-c3ccccc3)c(-c3cccs3)[nH]2)cc(OC)c1OC(C)=O` [Compound P3, 2,6-Dimethoxy-4-(4-phenyl-5-(thiophen-2-yl)-1H-imidazol-2-yl)phenyl acetate], the fraction remaining at 1 h, 10 μM in data set [1] (CES1−/− mouse plasma) is less than 30%; in data set [2] (CES1−/− mouse liver homogenate), less than 25%. In addition, the “Stability in mouse (% remaining at 1 h) Brain” value in data set [3] (CES1−/− mouse brain homogenate) is listed as “completely metabolized”.
For the compound `COc1cc(-c2nc(-c3ccccc3)c(-c3cccs3)[nH]2)cc(OC)c1OC(=O)C(C)(C)C` [Compound P4, 2,6-Dimethoxy-4-(4-phenyl-5-(thiophen-2-yl)-1H-imidazol-2-yl)phenyl pivalate], the amount remaining at 1 h, 10 μM was less than 30% in data set [1] (CES1−/− mouse plasma), less than 25% in data set [2] (CES1−/− mouse liver homogenate) and greater than 75% in data set [3] (CES1−/− mouse brain homogenate).
Consider `COc1cc(-c2nc(-c3ccccc3)c(-c3cccs3)[nH]2)cc(OC)c1OC(=O)N(C)C` [Compound P5, 2,6-Dimethoxy-4-(4-phenyl-5-(thiophen-2-yl)-1H-imidazol-2-yl)phenyl dimethylcarbamate], for which the amount remaining at 1 h, 10 μM in data set [1] (plasma), in data set [2] (tissue homogenate) and in data set [3] (brain homogenate) was greater than 75% each time.
With `COc1cc(-c2nc(-c3ccccc3)c(-c3cccs3)[nH]2)cc(OC)c1OC(=O)OC(OC(=O)C(C)(C)C)c1ccccc1` (centres unmarked) [Compound P6, (((2,6-Dimethoxy-4-(4-phenyl-5-(thiophen-2-yl)-1H-imidazol-2-yl)phenoxy)carbonyl)oxy)(phenyl)methyl pivalate], the values for the amount remaining at 1 h, 10 μM in data set [1] (CES1−/− mouse plasma), in data set [2] (CES1−/− mouse liver homogenate) and in data set [3] (CES1−/− mouse brain homogenate) were greater than 75%, greater than 75% and no less than 50%, respectively.
`CCC1CCCC(CC)N1C(=O)Oc1c(OC)cc(-c2nc(-c3ccccc3)c(-c3cccs3)[nH]2)cc1OC` (centres unmarked) [Compound P10, 2,6-Dimethoxy-4-(5-phenyl-4-(thiophen-2-yl)-1H-imidazol-2-yl)phenyl 2,6-diethylpiperidine-1-carboxylate] displayed a fraction remaining at 1 h, 10 μM in data set [2] (CES1−/− mouse liver homogenate) greater than 50%.
Take `COc1cc(-c2nc(-c3ccccc3)c(-c3cccs3)[nH]2)cc(OC)c1OC(=O)N1C2CCCC1CC2` [Compound P12, 2,6-Dimethoxy-4-(5-phenyl-4-(thiophen-2-yl)-1H-imidazol-2-yl)phenyl 8-azabicyclo[3.2.1]octane-8-carboxylate]: in data set [2] (tissue homogenate), the fraction remaining at 1 h, 10 μM was greater than 75%.
For the compound `COc1cc(-c2nc(-c3ccccc3)c(-c3cccs3)[nH]2)cc(OC)c1OC(=O)N1C2CCC1CC(N1CCCCC1)C2` (centres unmarked) [Compound P13, 2,6-Dimethoxy-4-(5-phenyl-4-(thiophen-2-yl)-1H-imidazol-2-yl)phenyl 3-(piperidin-1-yl)-8-azabicyclo[3.2.1]octane-8-carboxylate], the fraction remaining at 1 h, 10 μM in data set [2] (tissue homogenate) was greater than 75%.
With `COc1cc(-c2nc(-c3ccccc3)c(-c3cccs3)[nH]2)cc(OC)c1OCOP(=O)(O)O` [Compound P15, (2,6-Dimethoxy-4-(4-phenyl-5-(thiophen-2-yl)-1H-imidazol-2-yl)phenoxy) methyl dihydrogen phosphate], the share remaining at 1 h, 10 μM in data set [2] (CES1−/− mouse liver homogenate) is less than 25%. Further, in data set [3] (CES1−/− mouse brain homogenate), the “Stability in mouse (% remaining at 1 h) Brain” value was “completely metabolized”.
For `COc1cc(-c2nc(-c3ccccc3)c(-c3cccs3)[nH]2)cc(OC)c1OCOP(=O)(O)OCOC(=O)OC(C)C` [Compound P16, ((((2,6-Dimethoxy-4-(4-phenyl-5-(thiophen-2-yl)-1H-imidazol-2-yl)phenoxy)methoxy)(hydroxy)phosphoryl)oxy)methyl isopropyl carbonate], the share remaining at 1 h, 10 μM was less than 25% in data set [2] (CES1−/− mouse liver homogenate) and greater than 75% in data set [3] (CES1−/− mouse brain homogenate).
With `COc1cc(-c2nc(-c3ccccc3)c(-c3cccs3)[nH]2)cc(OC)c1OC(=O)C1=CN(C)C=CC1` [Compound P17, 2,6-Dimethoxy-4-(4-phenyl-5-(thiophen-2-yl)-1H-imidazol-2-yl)phenyl 1-methyl-1,4-dihydropyridine-3-carboxylate], in “Single time-point”, the “Brain level of intact prodrug” value was 3.0 nM and the “Plasma level of intact prodrug” value amounted to 3.9 nM. Besides, the “Putative oxidized pyridinium metabolite in brain and plasma” value in data set [5] was “negligible quantities”.
Regarding `CCC1CC(N2CCCCC2)CC(CC)N1C(=O)Oc1c(OC)cc(-c2nc(-c3ccccc3)c(-c3cccs3)[nH]2)cc1OC` (centres unmarked) [Compound P18, 2,6-Dimethoxy-4-(5-phenyl-4-(thiophen-2-yl)-1H-imidazol-2-yl)phenyl 2’,6’-diethyl-[1,4’-bipiperidine]-1’-carboxylate], the amount remaining at 1 h, 10 μM in data set [1] (plasma), in data set [2] (tissue homogenate) and in data set [3] (brain homogenate) was greater than 75% in each case. The “AUC0-t of intact prodrug in brain” value in data set [4] turned out to be 179 pmol·h/g. In addition, on nSMase2, the “Effect on heightened nSMase2 activity in striata caused by IL-1β” value is given as “normalized”.
For `CC(C)c1cccc(C(C)C)c1OCOP(=O)(O)O` [fospropofol], the “Improvement of oral bioavailability” value in data set [6] is listed as 20–70%.

These data come from paper PMC9980655 (Journal of medicinal chemistry, 2022).
